PMC9851200, “Multiparameter phenotypic screening for endogenous TFEB and TFE3 translocation identifies novel chemical series modulating lysosome function” (Autophagy, 2022)

Experiments:
Assay type in all cases: binding
[1] = biological target: kinases (KINOMEscan panel) (Homo sapiens, UniProt P07333); conditions: NEW KINOMEscan
[2] = biological target: kinases (KINOMEscan panel) (Homo sapiens, UniProt P19784); conditions: CSNK2A2; NEW KINOMEscan
[3] = biological target: T1, kinases (KINOMEscan panel) (Homo sapiens, UniProt Q96D53); conditions: kinase COQ8B; NEW KINOMEscan
T1 sequence (Q96D53 1-544): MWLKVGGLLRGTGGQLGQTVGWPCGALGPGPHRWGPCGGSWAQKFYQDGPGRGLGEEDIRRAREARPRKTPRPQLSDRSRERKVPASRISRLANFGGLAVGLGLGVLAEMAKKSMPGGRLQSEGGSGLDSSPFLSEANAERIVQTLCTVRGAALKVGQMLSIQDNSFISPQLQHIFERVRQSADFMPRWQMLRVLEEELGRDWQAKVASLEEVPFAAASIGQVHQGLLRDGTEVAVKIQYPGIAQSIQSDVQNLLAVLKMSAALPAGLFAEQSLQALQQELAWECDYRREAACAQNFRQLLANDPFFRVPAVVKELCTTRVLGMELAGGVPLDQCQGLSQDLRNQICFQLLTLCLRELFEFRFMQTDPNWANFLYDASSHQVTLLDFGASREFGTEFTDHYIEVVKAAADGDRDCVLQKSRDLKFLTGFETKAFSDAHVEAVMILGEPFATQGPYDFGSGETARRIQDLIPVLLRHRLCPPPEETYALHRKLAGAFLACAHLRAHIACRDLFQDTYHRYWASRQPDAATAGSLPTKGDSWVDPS

[4] = biological target: kinases (KINOMEscan panel) (Homo sapiens, UniProt P53355); conditions: kinase DAPK1; NEW KINOMEscan
[5] = biological target: kinases (KINOMEscan panel) (Homo sapiens, UniProt Q9HCP0); conditions: kinase CSNK1G1; NEW KINOMEscan
[6] = biological target: kinases (KINOMEscan panel) (Homo sapiens, UniProt Q96RR4); conditions: CAMKK2; NEW KINOMEscan
[7] = biological target: kinases (KINOMEscan panel) (Homo sapiens, UniProt P53350); conditions: PLK1; NEW KINOMEscan
[8] = biological target: kinases (KINOMEscan panel) (Homo sapiens, UniProt P49761); conditions: CLK3; NEW KINOMEscan
[9] = biological target: kinases (KINOMEscan panel) (Homo sapiens, UniProt Q16539)
[10] = biological target: kinases (KINOMEscan panel) (Homo sapiens, UniProt P00519, H396P); conditions: NEW KINOMEscan
[11] = biological target: kinases (KINOMEscan panel) (Homo sapiens, UniProt P53671); conditions: LIMK2; NEW KINOMEscan
[12] = biological target: kinases (KINOMEscan panel) (Homo sapiens, UniProt P36888, D835Y); conditions: kinase FLT3(D835Y); NEW KINOMEscan
[13] = biological target: kinases (KINOMEscan panel) (Homo sapiens, UniProt Q8IVW4); conditions: kinase CDKL3; NEW KINOMEscan
[14] = biological target: kinases (KINOMEscan panel) (Homo sapiens, UniProt Q9Y6M4); conditions: CSNK1G3; NEW KINOMEscan
[15] = biological target: kinases (KINOMEscan panel) (Homo sapiens, UniProt Q13627); conditions: NEW KINOMEscan
[16] = biological target: kinases (KINOMEscan panel) (Homo sapiens, UniProt P08922); conditions: kinase ROS1; NEW KINOMEscan
[17] = biological target: kinases (KINOMEscan panel) (Homo sapiens, UniProt Q9Y243); conditions: kinase AKT3; NEW KINOMEscan
[18] = biological target: T2, kinases (KINOMEscan panel) (Homo sapiens, UniProt Q12851); conditions: kinase MAP4K2; NEW KINOMEscan
T2 sequence (Q12851 1-820): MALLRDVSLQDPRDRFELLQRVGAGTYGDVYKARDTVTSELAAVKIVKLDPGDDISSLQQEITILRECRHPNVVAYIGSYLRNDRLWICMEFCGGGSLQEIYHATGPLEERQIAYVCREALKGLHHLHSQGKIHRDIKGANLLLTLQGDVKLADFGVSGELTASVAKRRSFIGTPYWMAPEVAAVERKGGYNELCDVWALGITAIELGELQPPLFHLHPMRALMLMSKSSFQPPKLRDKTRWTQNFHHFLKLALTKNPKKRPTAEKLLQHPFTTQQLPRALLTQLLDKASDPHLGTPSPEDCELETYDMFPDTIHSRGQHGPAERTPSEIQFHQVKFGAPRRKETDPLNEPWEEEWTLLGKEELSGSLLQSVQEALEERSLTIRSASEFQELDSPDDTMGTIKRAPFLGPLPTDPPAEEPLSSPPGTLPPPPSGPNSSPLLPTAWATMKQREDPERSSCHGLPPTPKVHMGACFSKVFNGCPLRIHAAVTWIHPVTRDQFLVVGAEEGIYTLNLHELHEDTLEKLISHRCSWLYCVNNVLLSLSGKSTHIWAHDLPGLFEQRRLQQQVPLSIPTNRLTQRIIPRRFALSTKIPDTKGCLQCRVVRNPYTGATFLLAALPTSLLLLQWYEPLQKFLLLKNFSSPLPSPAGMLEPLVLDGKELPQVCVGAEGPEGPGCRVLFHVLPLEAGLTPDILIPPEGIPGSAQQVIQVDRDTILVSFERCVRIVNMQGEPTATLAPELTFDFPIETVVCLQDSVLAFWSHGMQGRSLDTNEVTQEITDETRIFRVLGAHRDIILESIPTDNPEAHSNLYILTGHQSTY

kinases (KINOMEscan panel) (Homo sapiens, UniProt P07333), sequence (P07333 20-972): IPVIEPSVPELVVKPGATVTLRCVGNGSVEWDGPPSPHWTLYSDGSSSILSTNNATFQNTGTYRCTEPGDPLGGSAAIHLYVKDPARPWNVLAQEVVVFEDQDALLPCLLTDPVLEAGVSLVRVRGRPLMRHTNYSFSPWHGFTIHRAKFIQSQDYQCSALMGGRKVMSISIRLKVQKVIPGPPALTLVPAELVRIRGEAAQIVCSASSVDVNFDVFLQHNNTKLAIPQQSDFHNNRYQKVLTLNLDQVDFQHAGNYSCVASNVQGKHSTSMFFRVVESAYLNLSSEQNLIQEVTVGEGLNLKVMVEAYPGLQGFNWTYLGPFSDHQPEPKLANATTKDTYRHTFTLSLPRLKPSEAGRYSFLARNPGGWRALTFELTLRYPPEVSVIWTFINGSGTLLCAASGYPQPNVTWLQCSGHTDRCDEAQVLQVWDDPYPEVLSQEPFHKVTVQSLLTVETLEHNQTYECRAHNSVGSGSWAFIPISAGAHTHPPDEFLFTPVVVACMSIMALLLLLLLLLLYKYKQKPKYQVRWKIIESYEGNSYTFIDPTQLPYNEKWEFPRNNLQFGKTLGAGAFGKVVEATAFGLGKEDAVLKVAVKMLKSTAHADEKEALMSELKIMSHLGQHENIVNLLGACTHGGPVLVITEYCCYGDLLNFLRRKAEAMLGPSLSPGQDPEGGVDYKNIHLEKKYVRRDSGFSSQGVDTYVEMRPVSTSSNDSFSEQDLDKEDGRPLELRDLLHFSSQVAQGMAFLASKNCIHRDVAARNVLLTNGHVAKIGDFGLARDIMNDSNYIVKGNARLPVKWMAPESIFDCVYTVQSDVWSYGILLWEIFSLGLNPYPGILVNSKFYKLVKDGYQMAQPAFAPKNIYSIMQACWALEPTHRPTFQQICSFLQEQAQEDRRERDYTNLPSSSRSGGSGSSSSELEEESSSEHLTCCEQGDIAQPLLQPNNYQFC
kinases (KINOMEscan panel) (Homo sapiens, UniProt P53355), sequence (P53355 whole entry): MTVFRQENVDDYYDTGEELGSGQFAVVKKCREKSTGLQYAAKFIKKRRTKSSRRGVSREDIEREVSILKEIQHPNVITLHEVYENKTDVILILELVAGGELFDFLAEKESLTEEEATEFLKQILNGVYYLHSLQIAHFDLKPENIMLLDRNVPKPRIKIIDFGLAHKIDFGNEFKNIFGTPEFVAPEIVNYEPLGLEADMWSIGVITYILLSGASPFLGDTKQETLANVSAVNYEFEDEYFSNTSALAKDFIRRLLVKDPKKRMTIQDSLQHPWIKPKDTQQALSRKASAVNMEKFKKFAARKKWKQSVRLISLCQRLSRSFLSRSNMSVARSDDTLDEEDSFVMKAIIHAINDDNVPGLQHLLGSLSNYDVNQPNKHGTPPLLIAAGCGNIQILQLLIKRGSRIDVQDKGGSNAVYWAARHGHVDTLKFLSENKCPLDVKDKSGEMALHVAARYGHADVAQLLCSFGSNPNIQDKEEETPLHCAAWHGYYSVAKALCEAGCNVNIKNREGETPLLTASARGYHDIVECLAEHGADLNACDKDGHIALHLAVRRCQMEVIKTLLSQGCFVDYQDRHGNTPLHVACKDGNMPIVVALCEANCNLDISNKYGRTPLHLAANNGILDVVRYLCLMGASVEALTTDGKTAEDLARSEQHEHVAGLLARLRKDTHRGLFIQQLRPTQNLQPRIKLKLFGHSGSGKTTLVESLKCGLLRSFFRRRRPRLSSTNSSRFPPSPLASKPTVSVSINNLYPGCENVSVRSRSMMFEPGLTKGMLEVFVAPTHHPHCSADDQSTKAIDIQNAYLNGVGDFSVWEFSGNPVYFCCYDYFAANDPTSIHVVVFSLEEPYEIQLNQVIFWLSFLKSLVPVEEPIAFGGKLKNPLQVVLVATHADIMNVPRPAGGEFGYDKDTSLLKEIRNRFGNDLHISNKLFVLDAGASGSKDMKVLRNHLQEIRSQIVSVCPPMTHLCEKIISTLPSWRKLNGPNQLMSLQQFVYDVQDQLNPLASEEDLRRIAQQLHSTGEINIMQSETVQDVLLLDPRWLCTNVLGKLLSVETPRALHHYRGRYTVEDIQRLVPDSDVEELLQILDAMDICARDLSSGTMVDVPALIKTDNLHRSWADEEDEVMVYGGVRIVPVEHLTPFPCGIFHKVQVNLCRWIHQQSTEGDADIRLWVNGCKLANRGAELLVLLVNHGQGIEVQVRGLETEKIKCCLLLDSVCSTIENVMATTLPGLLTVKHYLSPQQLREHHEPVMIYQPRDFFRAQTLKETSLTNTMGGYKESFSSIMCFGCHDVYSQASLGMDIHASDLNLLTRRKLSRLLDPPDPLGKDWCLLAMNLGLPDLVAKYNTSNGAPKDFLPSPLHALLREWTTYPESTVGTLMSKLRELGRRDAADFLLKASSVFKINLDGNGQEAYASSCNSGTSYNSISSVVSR
kinases (KINOMEscan panel) (Homo sapiens, UniProt Q16539), sequence (Q16539 whole entry): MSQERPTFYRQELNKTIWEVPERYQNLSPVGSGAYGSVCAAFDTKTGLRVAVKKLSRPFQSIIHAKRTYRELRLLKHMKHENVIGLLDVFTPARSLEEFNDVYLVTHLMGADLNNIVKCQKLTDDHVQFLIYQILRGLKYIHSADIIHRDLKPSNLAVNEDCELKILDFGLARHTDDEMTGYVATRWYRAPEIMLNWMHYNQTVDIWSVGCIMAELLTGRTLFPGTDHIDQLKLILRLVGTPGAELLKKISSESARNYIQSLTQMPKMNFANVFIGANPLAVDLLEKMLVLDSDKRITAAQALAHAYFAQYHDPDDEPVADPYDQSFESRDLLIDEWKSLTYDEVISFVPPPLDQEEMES
kinases (KINOMEscan panel) (Homo sapiens, UniProt Q96RR4), sequence (Q96RR4 whole entry): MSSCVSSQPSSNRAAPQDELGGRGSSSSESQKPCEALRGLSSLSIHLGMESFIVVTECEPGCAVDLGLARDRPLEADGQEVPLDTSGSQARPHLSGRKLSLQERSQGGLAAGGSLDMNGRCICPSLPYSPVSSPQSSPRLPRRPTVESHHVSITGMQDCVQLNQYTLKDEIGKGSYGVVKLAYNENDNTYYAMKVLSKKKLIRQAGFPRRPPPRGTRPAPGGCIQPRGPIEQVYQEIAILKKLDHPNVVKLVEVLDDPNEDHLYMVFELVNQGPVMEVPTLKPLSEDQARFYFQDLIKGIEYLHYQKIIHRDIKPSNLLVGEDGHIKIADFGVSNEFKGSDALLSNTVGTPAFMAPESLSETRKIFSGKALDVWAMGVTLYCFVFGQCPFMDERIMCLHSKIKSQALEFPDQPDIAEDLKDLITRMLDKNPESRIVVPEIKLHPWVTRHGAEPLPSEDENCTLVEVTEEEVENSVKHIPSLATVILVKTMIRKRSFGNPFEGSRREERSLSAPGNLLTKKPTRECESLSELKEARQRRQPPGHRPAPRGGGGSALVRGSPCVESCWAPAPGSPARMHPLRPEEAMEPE
kinases (KINOMEscan panel) (Homo sapiens, UniProt Q9HCP0), sequence (Q9HCP0 whole entry): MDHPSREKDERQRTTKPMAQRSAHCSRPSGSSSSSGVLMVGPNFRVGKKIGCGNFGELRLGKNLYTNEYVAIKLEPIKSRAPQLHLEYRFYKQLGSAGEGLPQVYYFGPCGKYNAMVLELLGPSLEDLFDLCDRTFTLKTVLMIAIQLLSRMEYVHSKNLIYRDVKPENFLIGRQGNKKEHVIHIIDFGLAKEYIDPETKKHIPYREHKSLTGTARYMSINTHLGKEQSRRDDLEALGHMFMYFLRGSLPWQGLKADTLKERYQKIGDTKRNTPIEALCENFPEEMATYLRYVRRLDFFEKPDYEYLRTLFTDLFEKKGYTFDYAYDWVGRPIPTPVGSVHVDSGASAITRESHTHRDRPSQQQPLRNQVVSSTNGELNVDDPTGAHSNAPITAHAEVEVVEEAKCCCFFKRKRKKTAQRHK
kinases (KINOMEscan panel) (Homo sapiens, UniProt Q8IVW4), sequence (Q8IVW4 whole entry): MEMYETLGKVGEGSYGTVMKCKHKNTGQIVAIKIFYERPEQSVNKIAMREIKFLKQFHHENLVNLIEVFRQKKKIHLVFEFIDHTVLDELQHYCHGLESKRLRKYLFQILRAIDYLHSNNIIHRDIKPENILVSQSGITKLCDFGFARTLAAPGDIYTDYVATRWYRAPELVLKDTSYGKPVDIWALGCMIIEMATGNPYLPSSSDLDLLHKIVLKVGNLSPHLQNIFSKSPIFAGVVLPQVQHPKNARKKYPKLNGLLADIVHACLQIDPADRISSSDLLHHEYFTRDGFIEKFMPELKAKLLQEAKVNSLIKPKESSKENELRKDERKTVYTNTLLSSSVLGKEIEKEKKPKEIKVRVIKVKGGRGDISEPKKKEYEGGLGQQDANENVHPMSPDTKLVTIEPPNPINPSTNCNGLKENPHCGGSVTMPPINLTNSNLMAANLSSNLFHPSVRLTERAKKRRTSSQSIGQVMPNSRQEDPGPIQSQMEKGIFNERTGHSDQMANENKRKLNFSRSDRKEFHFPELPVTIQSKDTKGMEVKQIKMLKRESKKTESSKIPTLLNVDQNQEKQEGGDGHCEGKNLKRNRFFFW
kinases (KINOMEscan panel) (Homo sapiens, UniProt P53671), sequence (P53671 whole entry): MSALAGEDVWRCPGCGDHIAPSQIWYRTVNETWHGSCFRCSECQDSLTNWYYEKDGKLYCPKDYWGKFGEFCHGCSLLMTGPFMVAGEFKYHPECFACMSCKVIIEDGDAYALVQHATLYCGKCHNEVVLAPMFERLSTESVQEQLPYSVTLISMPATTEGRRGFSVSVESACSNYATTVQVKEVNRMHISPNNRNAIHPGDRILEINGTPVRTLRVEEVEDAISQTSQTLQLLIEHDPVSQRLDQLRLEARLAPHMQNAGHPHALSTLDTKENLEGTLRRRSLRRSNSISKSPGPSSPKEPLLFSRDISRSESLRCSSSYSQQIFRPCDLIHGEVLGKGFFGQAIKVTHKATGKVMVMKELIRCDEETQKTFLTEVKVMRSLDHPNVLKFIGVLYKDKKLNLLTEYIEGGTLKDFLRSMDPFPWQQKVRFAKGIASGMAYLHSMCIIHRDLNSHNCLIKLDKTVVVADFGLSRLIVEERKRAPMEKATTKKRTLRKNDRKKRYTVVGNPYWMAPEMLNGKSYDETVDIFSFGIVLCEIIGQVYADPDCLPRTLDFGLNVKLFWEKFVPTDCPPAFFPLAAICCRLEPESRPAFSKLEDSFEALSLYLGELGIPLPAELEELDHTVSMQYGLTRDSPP

Cc1cccc(-c2nc(Nc3ccc4nn(C)cc4c3)c3ccccc3n2)n1 [NK167]
KINOMEscan CSF1R [1]: 16
KINOMEscan CSF1R-autoinhibited [1]: 0
KINOMEscan CSNK2A2 [2]: 0
KINOMEscan COQ8B [3]: 0
KINOMEscan DAPK1 [4]: 0
KINOMEscan CSNK1G1 [5]: 0
KINOMEscan CAMKK2 [6]: 6
KINOMEscan PLK1 [7]: 0
KINOMEscan CLK3 [8]: 6
KINOMEscan MAPK14/p38-alpha [9]: 5
KINOMEscan ABL1(H396P)-nonphosphorylated [10]: 4
KINOMEscan ABL1(H396P)-phosphorylated [10]: 0
KINOMEscan LIMK2 [11]: 3
KINOMEscan FLT3(D835Y) [12]: 0
KINOMEscan CDKL3 [13]: 12
KINOMEscan CSNK1G3 [14]: 0
KINOMEscan DYRK1A [15]: 0
KINOMEscan ROS1 [16]: 0
KINOMEscan AKT3 [17]: 0
KINOMEscan MAP4K2 [18]: 0

Cc1cccc(-c2nc(N(C)c3ccc4ncsc4c3)c3ccccc3n2)n1 [NK-161]
KINOMEscan CSF1R [1]: 18
KINOMEscan CSF1R-autoinhibited [1]: 26
KINOMEscan CSNK2A2 [2]: 5
KINOMEscan COQ8B [3]: 0
KINOMEscan DAPK1 [4]: 0
KINOMEscan CSNK1G1 [5]: 0
KINOMEscan CAMKK2 [6]: 9
KINOMEscan PLK1 [7]: 4
KINOMEscan CLK3 [8]: 4
KINOMEscan MAPK14/p38-alpha [9]: 8
KINOMEscan ABL1(H396P)-nonphosphorylated [10]: 0
KINOMEscan ABL1(H396P)-phosphorylated [10]: 0
KINOMEscan LIMK2 [11]: 9
KINOMEscan FLT3(D835Y) [12]: 3
KINOMEscan CDKL3 [13]: 0
KINOMEscan CSNK1G3 [14]: 0
KINOMEscan DYRK1A [15]: 20
KINOMEscan ROS1 [16]: 0
KINOMEscan AKT3 [17]: 0
KINOMEscan MAP4K2 [18]: 6
